Measurements from the CombiSolv-Exp solvation set (Vermeire and Green 2021).

Assay: solvent given as SMILES

CC#N
Settings | solvation free energy, 298 K [kcal/mol]
in Brc1cccc2ccccc12 | -3.45
in C1CCOC1 | -4.3
in C1COCCO1 | -4.45
in CC(=O)N(C)C | -4.8
in CC(=O)OCc1ccccc1 | -4.08
in CC(C)=O | -3.83
in CC(C)CCCC(C)CCCC(C)CCCCC(C)CCCC(C)CCCC(C)C | -1.87
in CCC(C)=O | -4.46
in CCCCCC | -2.41
in CCCCCCC | -2.28
in CCCCCCCC | -2.17
in CCCCCCCCCCCCCCCC | -2.04
in CCCCCCCCO | -3.15
in CCCCCl | -3.63
in CCCCN(C=O)CCCC | -4.08
in CCCCO | -3.55
in CCCCOCCCC | -2.89
in CCO | -3.96
in CCOC(C)=O | -4.19
in CCOCC | -3.63
in CN1CCCCC1=O | -4.65
in CN(C)C=O | -4.65
in CNC(C)=O | -4.23
in CO | -4.04
in COC(C)(C)C | -3.67
in COC(C)=O | -4.53
in Cc1ccc(C)cc1 | -3.44
in ClC(Cl)(Cl)Cl | -3.03
in ClC(Cl)Cl | -4.43
in ClCCCl | -4.41
in ClCCl | -4.71
in Clc1ccccc1 | -3.74
in NC=O | -4.37
in O | -3.92
in O=C1CCCCC1 | -4.3
in [2H]O[2H] | -4.1
in c1ccc2ncccc2c1 | -3.98

O=C(O)c1cccc([N+](=O)[O-])c1C(=O)O
Settings | solvation free energy, 298 K [kcal/mol]
in C1CCOC1 | -19.1
in C1COCCO1 | -18.7
in CC(C)=O | -18.5
in CC(C)CO | -17.8
in CC(C)O | -18.4
in CCC(C)O | -18.1
in CCCCCCCO | -17.6
in CCCCCCO | -17.7
in CCCCCO | -17.8
in CCCCO | -17.9
in CCCO | -18.3
in CCOC(C)=O | -17.3
in COC(C)=O | -18.2
in O | -17.3

N#CCc1ccccc1
Settings | solvation free energy, 298 K [kcal/mol]
in CCCCCCCCCCCCCCCC | -6.06
in O | -5.05

C=CC(C)(CCC=C(C)C)OC=O (centres undefined)
Settings | solvation free energy, 298 K [kcal/mol]
in O | -3.6

CC(N)=O
Settings | solvation free energy, 298 K [kcal/mol]
in C=CCCCCCCC=C | -4.98
in C=CCCCCCCCCCCCCCC | -4.26

C=C(C)C1CCC(C)C12CC=C(C)CC2 (centres undefined)
Settings | solvation free energy, 298 K [kcal/mol]
in O | 0.25

Oc1ccc2ccccc2c1
Settings | solvation free energy, 298 K [kcal/mol]
in Brc1ccccc1 | -10.4
in CC(C)CC(C)(C)C | -8.21
in CCCCCC | -8.46
in CCCCCCC | -8.53
in CCCCCCCC | -8.63
in CCCCCCCCCC | -8.61
in ClC(Cl)(Cl)Cl | -9.45
in ClC(Cl)Cl | -10.5
in Clc1ccccc1 | -10.3
in O | -8.12

CCCCC
Settings | solvation free energy, 298 K [kcal/mol]
in BrC(Br)C(Br)Br | -2.06
in Brc1ccccc1 | -2.95
in C1=Cc2ccccc2C1 | -2.75
in C1CCCCC1 | -3.34
in C1CCOC1 | -3.22
in C1COCCO1 | -2.6
in C=CCCCC | -3.34
in C=CCCCCCC | -3.24
in C=CCCCCCCCC | -3.16
in C=CCCCCCCCCCCCCCC | -2.88
in CC1COC(=O)O1 | -1.59
in CC#N | -2.15
in CC(=O)CC(C)C | -2.86
in CC(=O)N(C)C | -2.29
in CC(=O)O | -2.36
in CC(=O)c1ccccc1 | -2.43
in CC(C)=O | -2.73
in CC(C)CC(C)(C)C | -3.24
in CC(C)CCCC(C)CCCC(C)CCCCC(C)CCCC(C)CCCC(C)C | -2.8
in CC(C)CCO | -2.82
in CC(C)O | -2.6
in CC(C)OC(C)C | -3.35
in CCBr | -3.45
in CCC#N | -2.59
in CCC(C)=O | -2.82
in CCC(C)O | -2.65
in CCCC#N | -2.48
in CCCC(=O)OCC | -3
in CCCC(C)=O | -2.89
in CCCCC(CC)COC(=O)CCCCC(=O)OCC(CC)CCCC | -2.65
in CCCCC(CC)COC(=O)c1ccccc1C(=O)OCC(CC)CCCC | -2.47
in CCCCCC | -3.36
in CCCCCC(C)=O | -2.92
in CCCCCCC | -3.27
in CCCCCCCC | -3.24
in CCCCCCCCC | -3.18
in CCCCCCCCC=CCCCCCCCC(=O)OCC(COC(=O)CCCCCCCC=CCCCCCCCC)OC(=O)CCCCCCCC=CCCCCCCCC | -2.77
in CCCCCCCCCC | -3.16
in CCCCCCCCCCCC | -3.05
in CCCCCCCCCCCCCC | -2.9
in CCCCCCCCCCCCCCCC | -2.93
in CCCCCCCCCOC(=O)c1ccccc1C(=O)OCCCCCCCCC | -2.55
in CCCCCCCCN(CCCCCCCC)CCCCCCCC | -2.81
in CCCCCCCCO | -2.7
in CCCCCCCO | -2.66
in CCCCCCO | -2.68
in CCCCCCOC(C)=O | -2.96
in CCCCCN(CCCCC)CCCCC | -2.98
in CCCCCO | -2.65
in CCCCCl | -3.22
in CCCCN(C=O)CCCC | -2.59
in CCCCN(CCCC)CCCC | -2.9
in CCCCO | -2.7
in CCCCOC(=O)c1ccccc1C(=O)OCCCC | -2.59
in CCCCOC(C)=O | -2.94
in CCCCOCCCC | -3.19
in CCCO | -2.58
in CCN1CCCC1=O | -2.25
in CCN(CC)C(C)=O | -2.48
in CCN(CC)CC | -3.31
in CCNC(C)=O | -2.35
in CCNC=O | -2.11
in CCO | -2.51
in CCOC(=O)c1ccccc1C(=O)OCC | -2.11
in CCOC(C)=O | -2.85
in CCOCC | -3.3
in CCOCCOCCOCC | -2.79
in CCOc1ccccc1 | -2.82
in CN1CCCC1=O | -2.18
in CN1CCCCC1=O | -2.16
in CN1CCN(C)C1=O | -1.88
in CN(C)C=O | -2.18
in CN(C)P(=O)(N(C)C)N(C)C | -2.39
in CNC(C)=O | -2.17
in CNC=O | -1.87
in CO | -2.29
in COC(C)=O | -2.66
in COCCO | -2.16
in COCCOCCOCCOCCOC | -2.2
in COc1ccccc1 | -2.76
in CS(C)=O | -1.41
in Cc1ccc(C)cc1 | -3.16
in Cc1cccc2ccccc12 | -2.63
in Cc1cccc(C)c1 | -3.11
in Cc1cccc(O)c1 | -2.28
in Cc1ccccc1 | -3.15
in Cc1ccccn1 | -2.82
in ClC(Cl)(Cl)Cl | -3.32
in ClC(Cl)C(Cl)Cl | -2.77
in ClC(Cl)Cl | -3.23
in ClCCCl | -2.77
in ClCCl | -3.07
in Clc1cccc2ccccc12 | -2.5
in Clc1ccccc1 | -3.14
in FC(F)(F)C(F)(F)C(F)(F)C(F)(F)C(F)(F)C(F)(F)C(F)(F)C(F)(F)F | -2.06
in FC(F)(F)C(F)(F)C(F)(F)C(F)(F)C(F)(F)C(F)(F)F | -2.15
in Fc1ccccc1 | -3.25
in ICI | -1.67
in Ic1ccccc1 | -2.61
in N#CCCCCC#N | -1.32
in N#CCc1ccccc1 | -1.99
in N#Cc1ccccc1 | -2.48
in NC=O | -0.44
in NCCO | -0.27
in Nc1ccccc1 | -1.89
in O=C1CCCCC1 | -2.73
in O=C1CCCO1 | -1.72
in O=C(O)C(Cl)Cl | -2.12
in O=CN1CCOCC1 | -1.51
in O=Cc1ccco1 | -1.8
in OC1CCCCC1 | -2.46
in OCCO | -0.34
in OCCOCCO | -0.86
in OCCc1ccccc1 | -2.12
in OCc1ccccc1 | -2.06
in OCc1ccco1 | -1.67
in S=C=S | -3.29
in c1ccc2ncccc2c1 | -2.54
in c1ccccc1 | -3.15
in c1ccncc1 | -2.64

CCCCO[N+](=O)[O-]
Settings | solvation free energy, 298 K [kcal/mol]
in O | -2.09

CCOC(C)OCC
Settings | solvation free energy, 298 K [kcal/mol]
in ClCCCl | -5.27
in O | -3.28

C1CCOCC1
Settings | solvation free energy, 298 K [kcal/mol]
in C1COCCO1 | -4.53
in CC(C)CCl | -4.65
in CCC(C)Cl | -4.65
in CCCCCCCCCCCCCCCC | -3.89
in CCCCCCCCO | -4.34
in CCCCCl | -4.71
in O | -3.12
in [2H]O[2H] | -3.08

O=c1[nH]cc(Cl)c(=O)[nH]1
Settings | solvation free energy, 298 K [kcal/mol]
in O | -17.7
